Laboratory results published in PubChem BioAssay AID330 (DTP/NCI, 2004).
Several values for one entry are separate records, joined by “and”; a condition that tells them apart may be missing. Equal entries are not always repeated. Inconclusive results and toxic doses are left out. The calls were made as follows: active = survival T/C of 150% or more; inactive = T/C below 125% in these data.

System: P388 leukemia ip, CD2F1 mice, survival T/C
Assay: NCI In Vivo Anticancer Drug Screen. Data for tumor model P388 Leukemia (intraperitoneal) in CD2F1 (CDF1) mice
Conditions: endpoint: median survival time, higher = longer survival
Method in brief: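 Mice carrying the transplanted tumor received test compound or vehicle. Survival was recorded in each group, and the value is the treated-group measurement divided by that of the vehicle-treated control group.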

[1] = dose: 50.0 mg/kg/injection, schedule: Q01DX005 (ip), vehicle: saline with Tween-80
[2] = dose: 100.0 mg/kg/injection, schedule: Q01DX005 (ip), vehicle: saline with Tween-80
[3] = dose: 200.0 mg/kg/injection, schedule: Q01DX005 (ip), vehicle: saline with Tween-80
[4] = dose: 50.0 mg/kg/injection, schedule: Q01DX009 (ip), vehicle: saline
[5] = dose: 200.0 mg/kg/injection, schedule: Q01DX009 (ip), vehicle: saline

Measured: T/C

OC(CCl)CN1CC[N+]2(CC1)CC[N+]1(CCN(CC(O)CCl)CC1)CC2 (stereo unspecified)
inactive: dose: 25.0 mg/kg/injection, schedule: Q01DX005 (ip), vehicle: water 100 % of control | dose: 25.0 mg/kg/injection, schedule: Q01DX005 (iv), vehicle: water 103 % of control | dose: 25.0 mg/kg/injection, schedule: Q01DX009 (sc), vehicle: water 97 % of control | dose: 25.0 mg/kg/injection, schedule: Q03HX008 (ip), vehicle: water 106 % of control | dose: 25.0 mg/kg/injection, schedule: Q03HX016 (ip), vehicle: water 100 % of control | dose: 25.0 mg/kg/injection, schedule: Q03HX024 (ip), vehicle: water 113 % of control | dose: 50.0 mg/kg/injection, schedule: Q01DX005 (ip), vehicle: water 101 % of control and 92 % of control | dose: 50.0 mg/kg/injection, schedule: Q01DX005 (iv), vehicle: water 102 % of control and 105 % of control | dose: 50.0 mg/kg/injection, schedule: Q01DX009 (ip), vehicle: water 98 % of control | dose: 50.0 mg/kg/injection, schedule: Q01DX009 (sc), vehicle: water 104 % of control | dose: 50.0 mg/kg/injection, schedule: Q03HX008 (ip), vehicle: water 103 % of control | dose: 50.0 mg/kg/injection, schedule: Q03HX016 (ip), vehicle: water 118 % of control | dose: 50.0 mg/kg/injection, schedule: Q03HX024 (ip), vehicle: water 121 % of control | dose: 100.0 mg/kg/injection, schedule: Q01DX005 (ip), vehicle: water 109 % of control and 98 % of control | dose: 100.0 mg/kg/injection, schedule: Q01DX005 (iv), vehicle: water 100 % of control and 101 % of control | dose: 100.0 mg/kg/injection, schedule: Q01DX009 (ip), vehicle: water 103 % of control | dose: 100.0 mg/kg/injection, schedule: Q01DX009 (oral), vehicle: water 99 % of control | dose: 100.0 mg/kg/injection, schedule: Q01DX009 (sc), vehicle: water 106 % of control | dose: 100.0 mg/kg/injection, schedule: Q03HX008 (ip), vehicle: water 114 % of control | dose: 100.0 mg/kg/injection, schedule: Q03HX024 (ip), vehicle: water 123 % of control | dose: 100.0 mg/kg/injection, schedule: Q04DX003 (ip), vehicle: water 92 % of control | dose: 200.0 mg/kg/injection, schedule: Q01DX001 (ip), vehicle: water 95 % of control | dose: 200.0 mg/kg/injection, schedule: Q01DX005 (ip), vehicle: water 102 % of control and 115 % of control | dose: 200.0 mg/kg/injection, schedule: Q01DX005 (iv), vehicle: water 109 % of control | dose: 200.0 mg/kg/injection, schedule: Q01DX009 (ip), vehicle: water 117 % of control | dose: 200.0 mg/kg/injection, schedule: Q01DX009 (oral), vehicle: water 101 % of control | dose: 200.0 mg/kg/injection, schedule: Q01DX009 (sc), vehicle: water 114 % of control | dose: 200.0 mg/kg/injection, schedule: Q04DX003 (ip), vehicle: water 99 % of control | dose: 200.0 mg/kg/injection, schedule: Q08DX002 (ip), vehicle: water 95 % of control | dose: 400.0 mg/kg/injection, schedule: Q01DX001 (ip), vehicle: water 96 % of control | dose: 400.0 mg/kg/injection, schedule: Q01DX005 (iv), vehicle: water 109 % of control | dose: 400.0 mg/kg/injection, schedule: Q01DX009 (ip), vehicle: water 111 % of control | dose: 400.0 mg/kg/injection, schedule: Q01DX009 (oral), vehicle: water 101 % of control | dose: 400.0 mg/kg/injection, schedule: Q01DX009 (sc), vehicle: water 107 % of control | dose: 400.0 mg/kg/injection, schedule: Q04DX003 (ip), vehicle: water 106 % of control | dose: 400.0 mg/kg/injection, schedule: Q08DX002 (ip), vehicle: water 104 % of control | dose: 800.0 mg/kg/injection, schedule: Q01DX001 (ip), vehicle: water 100 % of control | dose: 800.0 mg/kg/injection, schedule: Q01DX009 (oral), vehicle: water 92 % of control | dose: 800.0 mg/kg/injection, schedule: Q01DX009 (sc), vehicle: water 92 % of control | dose: 800.0 mg/kg/injection, schedule: Q04DX003 (ip), vehicle: water 118 % of control | dose: 800.0 mg/kg/injection, schedule: Q08DX002 (ip), vehicle: water 113 % of control | dose: 1600.0 mg/kg/injection, schedule: Q01DX001 (ip), vehicle: water 119 % of control | dose: 1600.0 mg/kg/injection, schedule: Q08DX002 (ip), vehicle: water 120 % of control

Cc1ccccc1N1C(=O)CSC1=S
inactive: dose: 12.5 mg/kg/injection, schedule: Q01DX009 (ip), vehicle: saline with Tween-80 105 % of control | dose: 25.0 mg/kg/injection, schedule: Q01DX009 (ip), vehicle: saline with Tween-80 95 % of control | dose: 50.0 mg/kg/injection, schedule: Q01DX009 (ip), vehicle: saline with Tween-80 105 % of control

CC1=CC(=O)C(O)C2(C)C1CC1OC(=O)C=C3C(C)(C4OC(=O)CC4CO)CC(O)C2C31C (stereo unspecified)
inactive: dose: 2.5 mg/kg/injection, schedule: Q01DX009 (ip), vehicle: saline + alcohol 92 % of control | dose: 5.0 mg/kg/injection, schedule: Q01DX009 (ip), vehicle: saline + alcohol 98 % of control | dose: 10.0 mg/kg/injection, schedule: Q01DX009 (ip), vehicle: saline + alcohol 108 % of control | dose: 20.0 mg/kg/injection, schedule: Q01DX009 (ip), vehicle: saline + alcohol 101 % of control

CN=C(N)N/N=C(\C)c1ccc2ccccc2c1
inactive: dose: 12.5 mg/kg/injection, schedule: Q04DX002 (ip), vehicle: saline 103 % of control | dose: 25.0 mg/kg/injection, schedule: Q04DX002 (ip), vehicle: saline 101 % of control | dose: 50.0 mg/kg/injection, schedule: Q04DX002 (ip), vehicle: saline 112 % of control

CS(=O)(=O)/N=C/N(CCc1ccccc1)c1ccccc1
inactive: dose: 60.0 mg/kg/injection, schedule: Q01DX005 (ip), vehicle: Klucel (hydroxypropylcellulose) (HPC) 101 % of control | dose: 120.0 mg/kg/injection, schedule: Q01DX005 (ip), vehicle: Klucel (hydroxypropylcellulose) (HPC) 99 % of control | dose: 240.0 mg/kg/injection, schedule: Q01DX005 (ip), vehicle: Klucel (hydroxypropylcellulose) (HPC) 99 % of control

O=C1OC(CCc2ccccc2O)c2ccccc21 (stereo unspecified)
inactive: [1] 89 % of control | [2] 99 % of control | [3] 93 % of control

CCN(CC)c1ncnc2c1nnn2C
inactive: [1] 101 % of control | [2] 100 % of control | [3] 107 % of control

CCC1(c2cccc(C=O)c2)CCCCN(C)C1 (stereo unspecified)
inactive: dose: 12.5 mg/kg/injection, schedule: Q01DX005 (ip), vehicle: saline 99 % of control | dose: 25.0 mg/kg/injection, schedule: Q01DX005 (ip), vehicle: saline 97 % of control | dose: 50.0 mg/kg/injection, schedule: Q01DX005 (ip), vehicle: saline 97 % of control

CC1=NN(c2cccc(S(=O)(=O)O)c2)C(=O)C1N=Nc1cc(Cl)cc(S(=O)(=O)O)c1O.O.[Cr] (stereo unspecified)
inactive: [4] 114 % of control | dose: 100.0 mg/kg/injection, schedule: Q01DX009 (ip), vehicle: saline 108 % of control | [5] 115 % of control

CCC(c1ccc(OCCS(=O)(=O)OC)cc1)C(CC)c1ccc(OCCS(=O)(=O)OC)cc1 (stereo unspecified)
inactive: dose: 12.5 mg/kg/injection, schedule: Q01DX009 (ip), vehicle: suspension in saline 100 % of control | dose: 25.0 mg/kg/injection, schedule: Q01DX009 (ip), vehicle: suspension in saline 94 % of control | [4] 91 % of control | dose: 50.0 mg/kg/injection, schedule: Q01DX009 (ip), vehicle: suspension in saline 87 % of control | [5] 92 % of control

N#Cc1nc2ccccc2n1OCc1ccccc1
inactive: dose: 50.0 mg/kg/injection, schedule: Q01DX009 (ip), vehicle: Klucel (hydroxypropylcellulose) (HPC) 97 % of control | dose: 100.0 mg/kg/injection, schedule: Q01DX009 (ip), vehicle: Klucel (hydroxypropylcellulose) (HPC) 107 % of control | dose: 200.0 mg/kg/injection, schedule: Q01DX009 (ip), vehicle: Klucel (hydroxypropylcellulose) (HPC) 102 % of control
